Source: US20220202754A1, “USES OF PANTOTHENIC ACID IN PREPARATION OF A COMPOSITION FOR TREATING AND/OR PREVENTING TUMORS” (REVAISSANT (SHENZHEN) BIOSCIENCES CO., LTD., priority 2019, published 2022)

Legend:
[1] = tested on: liver cancer cells (HEPA1-6) transplanted tumors; test: Pantothenic acid for tumor prevention and treatment in mice: size of subcutaneously transplanted tumors; assay type: in vivo, C57BL/6 mice; conditions: gavage 0.02 g/ml; HEPA1-6 subcutaneous tumor; p<0.01; FIG. 4 and FIG. 5
Source text: FIG. 3 is a schematic diagram of the experimental procedure for detecting pantothenic acid, the metabolite of the intestinal bacteria to enhance an accumulation of CD8^+ cytotoxic T cells in the tumor microenvironment and to treat tumors in a mouse model of liver cancer. That is, an experimental procedure of administering pantothenic acid to mice subcutaneously transplanted with liver cancer cells (HEPA1-6). The time is expressed in days (Day, d) for administering pantothenic acid or for transplanting tumor cells.
Experimental animals: Twenty-seven C57BL/6 mice aged 3 to 4 weeks old in good mental state were purchased from the Experimental Animal Center of Sun Yat-sen University. The mice were randomly divided into 3 groups, nine mice for each group, and the 3 groups were a control group (the first group), a pantothenic acid group (the second group) and a Vitamin E control group (the third group) respectively. […] After dissection, the sizes of the subcutaneously transplanted tumors were measured, and the tumor cells were collected in situ. A relative amount of the CD8^+ T lymphocytes in the tumor microenvironment was detected and analyzed by flow cytometry.

[2] = tested on: CD8+ T lymphocytes in the liver tumor microenvironment; test: Relative amount of CD8+ T lymphocytes in the tumor microenvironment by flow cytometry; assay type: in vivo, C57BL/6 mice; conditions: for increase of relative amount of CD8+ T lymphocytes in the liver tumor microenvironment: one typical mouse per group, FIG. 6
Source text: Experimental animals: Twenty-seven C57BL/6 mice aged 3 to 4 weeks old in good mental state were purchased from the Experimental Animal Center of Sun Yat-sen University. The mice were randomly divided into 3 groups, nine mice for each group, and the 3 groups were a control group (the first group), a pantothenic acid group (the second group) and a Vitamin E control group (the third group) respectively. The 3 groups of mice were continually administered by gavage with pure water, pantothenic acid (at a concentration of 0.02 g/ml, purchased from the Sigma official website) and Vitamin E (at a concentration of 0.02 g/ml, purchased from the Sigma official website) for 3 to 4 weeks, respectively. After the mouse tumor (liver cancer) cells HEPA1-6 grew at logarithmic phase, they were digested with trypsin, and culture medium was neutralized. After centrifugation, the cells were collected, washed twice with DPBS to remove residual serum. Finally, the cells were redissolved with DPBS. After cell counting was completed, each mouse was subcutaneously inoculated with 10^6 cells into right axilla and continually treated by gavage, respectively, and the tumor-bearing mice were killed after 2 to 3 weeks. After dissection, the sizes of the subcutaneously transplanted tumors were measured, and the tumor cells were collected in situ. A relative amount of the CD8^+ T lymphocytes in the tumor microenvironment was detected and analyzed by flow cytometry.

CC(C)(CO)[C@@H](O)C(=O)NCCC(=O)O [pantothenic acid]
reduction of size of liver cancer cell transplanted tumors [1]: about 80% | relative amount of CD8+ T lymphocytes in the tumor microenvironment (percentage of total cells) ([2]; compared with pure water control group and Vitamin E control group, statistical analysis, p<0.05, FIG. 7): significantly increases | increase of relative amount of CD8+ T lymphocytes in the liver tumor microenvironment ([2]; compared with the Vitamin E control group): more than 3 times | increase of relative amount of CD8+ T lymphocytes in the liver tumor microenvironment ([2]; compared with the pure water control group): more than 7 times
